Source: patent publication US20110009379A1, “INDOLINONE COMPOUND” (ASTELLAS PHARMA INC., priority 2008, published 2011)

Experiments:
human TRPA1 = biological target: T1, human TRPA1 (Homo sapiens, UniProt O75762, K186N/R3C/R58T); test: Measurement of TRPA1 activation activity (intracellular calcium, FLIPR, HEK293 cells stably expressing human TRPA1); format: cell-based; details: change of intracellular calcium concentration
T1 construct: expressed in transfected cells; pcDNA3.1(+) vector)
How it was run: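 HEK293 cells stably expressing cloned human TRPA1 (G418-selected) were loaded with Fluo4-AM for 1 h in HBSS/HEPES pH 7.4 buffer containing probenecid. Intracellular calcium change after compound addition was recorded by FLIPR. EC50 values were calculated from these responses.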

Cytochrome P450(2D6) = Cytochrome P450(2D6) (Homo sapiens, UniProt P10635); test: Cytochrome P450(2D6) enzyme inhibition test; format: in vitro ADME; details: CYP2D6, fluorescent substrate 1.5 μmol/L, 37° C., 20 minutes
How it was run: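 CYP2D6 (2.5×10^-8 M) incubated 20 min at 37 °C with 1.5 μmol/L AMMC substrate and compound (3.1×10^-7 to 2×10^-5 M) in pH 7.4 phosphate buffer with NADPH-regenerating system. Stopped with Tris/acetonitrile, fluorescence read at ex 390/em 460 nm, and IC50 taken at 50% inhibition.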

[1] = tested on: delay of discharging time induced by loperamide in mice; test: Loperamide induced constipation model (glass bead discharging time); format: in vivo; details: Mus musculus; mice (Slc:ddY, male), 0.3 mg/kg loperamide subcutaneously, compound orally; read-out: ED50 (amount which suppresses 50% of the delay of discharging time induced by loperamide)
Method: It has been known that loperamide as a μ opioid receptor agonist causes convulsive contraction in intestinal tracts. Thus, a delay in the intestinal transport ability due to loperamide is thought as a constipation IBS model.
Mice (Slc:ddY, five-week old, male) fasted from the previous evening of the experiment. On the day of the experiment, the mice were acclimatized to cages for measurement for 1 hour or more, and 0.3 mg/kg of loperamide was administered subcutaneously. After 30 minutes, a compound to be tested was administered orally, ether anesthesia was applied to the mice immediately thereafter, glass beads having diameter of 3 mm were inserted to 2 cm from anus. The mice were returned to the cages for measurement, and the time from waking to discharging of the glass beads was measured. Furthermore, the compound to be tested was dissolved into 10% DMSO, 10% cremophor, and 80% distillated water.
As a result, it has been recognized that there was a delay in the beads discharging time of the loperamide administration group (vehicle group) in comparison with the loperamide non-administration group (control group).
ED50 values (amount of the compound to be tested which suppresses 50% of the delay of discharging time induced by loperamide) of some of the compounds of the formula (I) are shown in Table 3. In this connection, comparative compound 1 is the same compound as comparative compound 1 in Test Example 4.

Cytochrome P450(2D6), sequence (P10635 whole entry): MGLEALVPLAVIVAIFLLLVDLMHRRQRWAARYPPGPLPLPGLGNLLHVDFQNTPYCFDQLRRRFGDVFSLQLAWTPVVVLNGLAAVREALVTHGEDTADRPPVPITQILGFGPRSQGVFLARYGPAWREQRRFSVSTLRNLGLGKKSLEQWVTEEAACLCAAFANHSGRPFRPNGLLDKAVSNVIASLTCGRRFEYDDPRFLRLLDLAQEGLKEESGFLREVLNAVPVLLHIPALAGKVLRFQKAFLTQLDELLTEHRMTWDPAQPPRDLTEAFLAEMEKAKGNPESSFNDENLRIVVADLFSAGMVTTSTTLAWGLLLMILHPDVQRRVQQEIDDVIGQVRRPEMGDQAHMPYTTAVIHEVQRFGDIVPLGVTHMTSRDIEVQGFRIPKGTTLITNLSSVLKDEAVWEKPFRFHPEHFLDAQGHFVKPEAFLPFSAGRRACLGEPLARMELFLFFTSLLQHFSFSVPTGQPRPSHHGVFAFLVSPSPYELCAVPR
T1 sequence (O75762 whole entry R3C/R58T/K186N): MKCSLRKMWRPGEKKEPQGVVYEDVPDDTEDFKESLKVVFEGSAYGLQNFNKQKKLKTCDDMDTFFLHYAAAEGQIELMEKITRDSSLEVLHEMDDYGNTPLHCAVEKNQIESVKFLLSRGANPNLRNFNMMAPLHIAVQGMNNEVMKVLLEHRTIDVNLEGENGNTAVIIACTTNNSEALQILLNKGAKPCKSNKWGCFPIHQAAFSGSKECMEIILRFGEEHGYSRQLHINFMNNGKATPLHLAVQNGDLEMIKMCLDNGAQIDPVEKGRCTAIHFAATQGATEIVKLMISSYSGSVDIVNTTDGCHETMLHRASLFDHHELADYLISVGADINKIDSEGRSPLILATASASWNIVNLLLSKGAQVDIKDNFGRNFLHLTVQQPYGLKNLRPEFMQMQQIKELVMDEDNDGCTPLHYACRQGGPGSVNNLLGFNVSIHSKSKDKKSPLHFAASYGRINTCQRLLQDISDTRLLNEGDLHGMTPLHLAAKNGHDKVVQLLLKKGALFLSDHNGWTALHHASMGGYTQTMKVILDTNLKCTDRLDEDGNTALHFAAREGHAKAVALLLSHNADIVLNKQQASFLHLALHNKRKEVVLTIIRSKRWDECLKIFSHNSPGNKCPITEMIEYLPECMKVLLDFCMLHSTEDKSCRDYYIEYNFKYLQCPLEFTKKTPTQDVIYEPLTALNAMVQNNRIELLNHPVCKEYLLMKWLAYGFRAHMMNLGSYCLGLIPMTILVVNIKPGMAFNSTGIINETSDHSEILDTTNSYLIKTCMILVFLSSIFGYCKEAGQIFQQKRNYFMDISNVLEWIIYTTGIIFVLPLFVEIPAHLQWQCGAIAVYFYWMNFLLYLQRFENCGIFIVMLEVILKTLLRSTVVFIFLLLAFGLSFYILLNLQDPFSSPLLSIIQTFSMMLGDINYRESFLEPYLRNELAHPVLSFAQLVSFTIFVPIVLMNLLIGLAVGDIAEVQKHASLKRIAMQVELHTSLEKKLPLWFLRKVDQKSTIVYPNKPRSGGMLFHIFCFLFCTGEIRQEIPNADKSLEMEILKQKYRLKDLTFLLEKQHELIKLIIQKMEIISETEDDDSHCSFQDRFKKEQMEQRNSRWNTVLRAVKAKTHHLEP

With `O=C(O)/C=C1/C(=O)N(CC2CCCC2)c2c(F)cccc21` [Example 28, (2E)-[1-(cyclopentylmethyl)-7-fluoro-2-oxo-1,2-dihydro-3H-indol-3-ylidene]acetic acid] the EC50 (human TRPA1) was 510 nM, the IC50 (Cytochrome P450(2D6)) was over 25000 nM and the melting point was 151 to 153 °C. The ED50 [1] was 0.1 mg/kg.
